Source: US10189782B2, “Derivatives of indole for the treatment of cancer, viral infections and lung diseases” (BIOKINESIS, priority 2012, dated 2019)
Where a name gives a salt, the structure may show the parent alone.

biological target: T1, Human recombinant MKlp2 motor domain1-519, His tagged (Homo sapiens, UniProt O95235); assay: Microtubule stimulated ATPase activity of the MKlp2 motor domain (Kinesin ELIPA Assay Kit); type: biochemical; details: MKIp2 IC50 (μM), Table 3, 22° C.
T1 construct: Human recombinant MKlp2 motor domain1-519, His tagged; His; purchased Cytoskeleton MP05
T1 sequence (O95235 1-519): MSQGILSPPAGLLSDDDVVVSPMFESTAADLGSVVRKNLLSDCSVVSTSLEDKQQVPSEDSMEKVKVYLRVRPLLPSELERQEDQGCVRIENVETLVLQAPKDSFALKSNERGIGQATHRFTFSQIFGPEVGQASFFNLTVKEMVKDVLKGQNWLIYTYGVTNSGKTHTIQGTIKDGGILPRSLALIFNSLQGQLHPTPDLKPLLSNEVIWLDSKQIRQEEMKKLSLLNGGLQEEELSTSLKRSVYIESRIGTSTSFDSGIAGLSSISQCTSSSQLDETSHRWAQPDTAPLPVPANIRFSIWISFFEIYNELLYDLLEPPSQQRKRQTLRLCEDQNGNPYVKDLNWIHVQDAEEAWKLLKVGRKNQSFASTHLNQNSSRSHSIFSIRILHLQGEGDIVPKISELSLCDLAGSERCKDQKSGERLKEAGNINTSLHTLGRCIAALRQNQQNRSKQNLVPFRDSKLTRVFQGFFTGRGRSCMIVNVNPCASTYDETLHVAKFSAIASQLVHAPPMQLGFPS
Method: Evaluation of Inhibitory Effects on the Microtubule Stimulated ATPase Activity of the MKlp2 Motor Domain.
MKlp2 ATPase activity was measured by monitoring real time free phosphate generation using the Kinesin ELIPA Assay Kit. The assay is based upon an absorbance shift (330 nm-360 nm) that occurs when 2-amino-6-mercapto-7-methylpurine ribonucleoside (MESG) is catalytically converted to 2-amino-6-mercapto-7-methylpurine in the presence of inorganic phosphate (Pi). One molecule of Pi will yield one molecule of 2-amino-6-mercapto-7-methylpurine in an essentially irreversible reaction.
All experiments were performed at 22° C.
Condition 1, compound preparation.
The compounds were dissolved in DMSO at 30× the maximum concentration to be tested. […] DMSO solutions were pipetted directly into each well.
Condition 2, reaction's “motor mix”.
The following were mixed sequentially in the specified order at RT to obtain the “motor mix”.
20 mL: 15 mM Pipes-NaOH pH 7.0, 10 mM MgCl2, 30 μM Tx (Buffer 1).
10 mL: 5× MSEG (ELIPA 1 reagent, Cat. # BK051).
10 mL: 2.5 mg/mL porcine brain microtubules (3×10 mg Cat. # MT002-XL resuspended in 12 mL of Buffer 1).
0.5 mL: 100×PNP (ELIPA 2 reagent, cat. # BK051).
Condition 3, reaction initiation.
The motor mix was pipetted into each well to obtain 80% of total volume. The reaction was initiated by adding a 20% of total volume of 5 mM ATP into each well.
The reactions were measured in a SpectraMax M2 (Molecular Devices) set in kinetic mode and 360 nm absorbance wavelength. The start protocol was 5 second rapid circular mixing, 21 readings, 30 seconds apart.

SMILES | IC50
N#CC(=Cc1cccnc1)c1c[nH]c2ccc(Cl)cc12 [W02010/150211-Example 24, reference compound] | 1.1 µM
CCOc1ccc2[nH]cc(C(C#N)=Cc3cccnc3)c2c1 [W02010/150211-Example 22, reference compound] | 5.2 µM
COc1ccc2c(C(C#N)=Cc3cccnc3)c[nH]c2c1 [W02010/150211-Example 26, reference compound] | 26.5 µM
COc1ccc2[nH]cc(C(C#N)=Cc3cnccc3C)c2c1 [W02010/150211-Example 31, reference compound] | 2.3 µM
COc1ccc2[nH]cc(C(C#N)=Cc3cccc(C#N)c3)c2c1 [W02010/150211-Example 30, reference compound] | 4.4 µM
COc1ccc2[nH]cc(C(C#N)=Cc3ccc(OC)nc3)c2c1 [W02010/150211-Example 52, reference compound] | 12.6 µM

same assay, conditions: Table 3, 22° C., read-out: MKIp2 IC50

SMILES | IC50
N#C/C(=C\c1cnccc1-c1cccc(Br)c1)c1c[nH]c2ccc(Cl)cc12 [Example 18, (Z)-3-(4-(3-bromophenyl)pyridin-3-yl)-2-(5-chloro-1H-indol-3-yl)acrylonitrile] | 0.3 µM
COc1ccncc1/C=C(\C#N)c1c[nH]c2ccc(Cl)cc12 [Example 35, (Z)-2-(5-chloro-1H-indol-3-yl)-3-(4-methoxypyridin-3-yl)acrylonitrile, Hydrochloride] | < 0.07 µM
N#C/C(=C\c1cnccc1Sc1ccc(F)cc1)c1c[nH]c2ccc(Br)cc12 [Example 28, (Z)-2-(5-bromo-1H-indol-3-yl)-3-(4-((4-fluorophenyl)thio)pyridin-3-yl)acrylonitrile] | 0.09 µM
CN(C)CCSc1ccncc1/C=C(\C#N)c1c[nH]c2ccc(Br)cc12 [Example 36] | 0.3 µM
N#C/C(=C\c1cnccc1Oc1ccccc1)c1c[nH]c2ccc(Cl)cc12 [Example 10, (Z)-2-(5-chloro-1H-indol-3-yl)-3-(4-phenoxypyridin-3-yl)acrylonitrile] | 0.3 µM
CN(C)c1ccc(C#N)cc1/C=C(\C#N)c1c[nH]c2ccc(Cl)cc12 [Example 41, (Z)-3-(2-(5-chloro-1H-indol-3-yl)-2-cyanovinyl)-4-(dimethylamino)benzonitrile] | 0.4 µM
CN(C)c1ccncc1/C=C(\C#N)c1c[nH]c2ccc(Cl)cc12 [Example 6, (Z)-2-(5-chloro-1H-indol-3-yl)-3-(4-(dimethylamino)pyridin-3-yl)acrylonitrile] | 0.5 µM
COc1ccc(Sc2ccncc2/C=C(\C#N)c2c[nH]c3ccc(Br)cc23)cc1OC [Example 21, (Z)-2-(5-bromo-1H-indol-3-yl)-3-(4-((3,4-dimethoxyphenyl)thio)pyridin-3-yl)acrylonitrile] | 0.4 µM
N#C/C(=C\c1cnccc1-c1ccc(C(F)(F)F)cc1)c1c[nH]c2ccc(Cl)cc12 [Example 26, (Z)-2-(5-chloro-1H-indol-3-yl)-3-(4-(4-(trifluoromethyl)phenyl)pyridin-3-yl)acrylonitrile] | 0.5 µM
COc1ccncc1/C=C(\C#N)c1cn(C(=O)OCCN2CCN(C)CC2)c2ccc(Br)cc12 [Example 62, (Z)-2-(4-methylpiperazin-1-yl)ethyl 5-bromo-3-(1-cyano-2-(4-methoxypyridin-3-yl)vinyl)-1H-indole-1-carboxylate] | 0.35 µM
N#C/C(=C\c1cnccc1-c1ccc(C(F)(F)F)cc1)c1c[nH]c2ccc(Br)cc12 [Example 25, (Z)-2-(5-bromo-1H-indol-3-yl)-3-(4-(4-(trifluoromethyl)phenyl)pyridin-3-yl)acrylonitrile] | 0.4 µM
CC(C)Oc1ccncc1/C=C(\C#N)c1c[nH]c2ccc(Br)cc12 [Example 14, (Z)-2-(5-bromo-1H-indol-3-yl)-3-(4-isopropoxypyridin-3-yl)acrylonitrile] | 0.2 µM
N#C/C(=C\c1cnccc1Oc1ccccc1)c1c[nH]c2ccc(Br)cc12 [Example 11, (Z)-2-(5-bromo-1H-indol-3-yl)-3-(4-phenoxypyridin-3-yl)acrylonitrile] | 0.5 µM
COc1ccc(C#N)cc1/C=C(\C#N)c1c[nH]c2ccc(Cl)cc12 [Example 40, (Z)-3-(2-(5-chloro-1H-indol-3-yl)-2-cyanovinyl)-4-methoxybenzonitrile] | 0.2 µM
N#C/C(=C\c1cnccc1Sc1ccccc1)c1c[nH]c2ccc(Br)cc12 [Example 19, (Z)-2-(5-bromo-1H-indol-3-yl)-3-(4-(phenylthio)pyridin-3-yl)acrylonitrile] | 0.3 µM
N#C/C(=C\c1cnccc1Sc1ccccn1)c1c[nH]c2ccc(Cl)cc12 [Example 30, (Z)-2-(5-chloro-1H-indol-3-yl)-3-(4-(pyridin-2-ylthio)pyridin-3-yl)acrylonitrile] | 0.3 µM
N#C/C(=C\c1cnccc1-n1cncn1)c1c[nH]c2ccc(Cl)cc12 [Example 33, (Z)-3-(4-(1H-1,2,4-triazol-1-yl)pyridin-3-yl)-2-(5-chloro-1H-indol-3-yl)acrylonitrile] | 0.1 µM
N#C/C(=C\c1cnccc1SCc1ccccc1)c1c[nH]c2ccc(Br)cc12 [Example 20, (Z)-3-(4-(benzylthio)pyridin-3-yl)-2-(5-bromo-1H-indol-3-yl)acrylonitrile] | 0.2 µM
COc1ccncc1/C=C(\C#N)c1c[nH]c2cc(Cl)ccc12 [Example 47, (Z)-2-(6-chloro-1H-indol-3-yl)-3-(4-methoxypyridin-3-yl)acrylonitrile] | 0.2 µM
N#C/C(=C\c1cnccc1Oc1ccc(F)cc1)c1c[nH]c2ccc(Br)cc12 [Example 22, (Z)-2-(5-bromo-1H-indol-3-yl)-3-(4-(4-fluorophenoxy)pyridin-3-yl)acrylonitrile] | 0.09 µM
COC(=O)CC(=O)n1cc(/C(C#N)=C/c2cnccc2OC)c2cc(Br)ccc21 [Example 59, (Z)-methyl-3-(5-bromo-3-(1-cyano-2-(4-methoxypyridin-3-yl)vinyl)-1H-indol-1-yl)-3-oxopropanoate] | 0.57 µM
CN(C)c1ccncc1/C=C(\C#N)c1c[nH]c2ccc(Cl)cc12 [Example 7, (Z)-2-(5-chloro-1H-indol-3-yl)-3-(4-(dimethylamino)pyridin-3-yl)acrylonitrile, Hydrochloride] | 0.8 µM
COc1ccncc1/C=C(\C#N)c1c[nH]c2cc(F)ccc12 [Example 46, (Z)-2-(6-fluoro-1H-indol-3-yl)-3-(4-methoxypyridin-3-yl)acrylonitrile] | 0.12 µM
N#C/C(=C\c1cnccc1Oc1ccc(F)cc1)c1c[nH]c2ccc(Cl)cc12 [Example 23, (Z)-2-(5-chloro-1H-indol-3-yl)-3-(4-(4-fluorophenoxy)pyridin-3-yl)acrylonitrile] | 0.09 µM
N#C/C(=C\c1cnccc1Sc1ccc(F)cc1)c1c[nH]c2ccc(Cl)cc12 [Example 27, (Z)-2-(5-chloro-1H-indol-3-yl)-3-(4-((4-fluorophenyl)thio)pyridin-3-yl)acrylonitrile] | 0.3 µM
N#C/C(=C\c1cnccc1Sc1ccccn1)c1c[nH]c2ccc(Br)cc12 [Example 31, (Z)-2-(5-bromo-1H-indol-3-yl)-3-(4-(pyridin-2-ylthio)pyridin-3-yl)acrylonitrile] | 0.4 µM
CCOc1ccncc1/C=C(\C#N)c1c[nH]c2ccc(OC)cc12 [Example 2, (Z)-3-(4-ethoxypyridin-3-yl)-2-(5-methoxy-1H-indol-3-yl)acrylonitrile] | 0.3 µM
